How the values were obtained:
Assay in all cases: relative viability (nuclei count vs DMSO), 5 days (fraction); higher = more cells survive
Bleomycin + Navitoclax = compound: CC1=C(N=C(N=C1N)[C@H](CC(=O)N)NC[C@@H](C(=O)N)N)C(=O)N[C@@H]([C@H](C2=CN=CN2)OC3C(C(C(C(O3)CO)O)O)OC4C(C(C(C(O4)CO)O)OC(=O)N)O)C(=O)N[C@H](C)[C@H]([C@H](C)C(=O)N[C@@H]([C@@H](C)O)C(=O)NCCC5=NC(=CS5)C6=NC(=CS6)C(=O)NCCC[S+](C)C)O [Bleomycin] + CC1(C)CCC(c2ccc(Cl)cc2)=C(CN2CCN(c3ccc(C(=O)NS(=O)(=O)c4ccc(N[C@H](CCN5CCOCC5)CSc5ccccc5)c(S(=O)(=O)C(F)(F)F)c4)cc3)CC2)C1 [Navitoclax] (partner 0.5 µM); settings: main component drawn
In short: (§1)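 Each reported value is a median over duplicate plates. It expresses relative viability: treated-well nuclei count divided by vehicle-well nuclei count. Lung cancer cell lines in 1536-well plates were dosed by pin tool a day after seeding, alone with one drug or with a fixed anchor-drug dose plus five library-drug doses (not always all listed) in √10 steps, and nuclei were counted after 5 days.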

Bleomycin + Lapatinib = compound: CC1=C(N=C(N=C1N)[C@H](CC(=O)N)NC[C@@H](C(=O)N)N)C(=O)N[C@@H]([C@H](C2=CN=CN2)OC3C(C(C(C(O3)CO)O)O)OC4C(C(C(C(O4)CO)O)OC(=O)N)O)C(=O)N[C@H](C)[C@H]([C@H](C)C(=O)N[C@@H]([C@@H](C)O)C(=O)NCCC5=NC(=CS5)C6=NC(=CS6)C(=O)NCCC[S+](C)C)O [Bleomycin] + CS(=O)(=O)CCNCc1ccc(-c2ccc3ncnc(Nc4ccc(OCc5cccc(F)c5)c(Cl)c4)c3c2)o1 [Lapatinib] (partner 2 µM); settings: main component drawn
In short: as §1

Etoposide + Luminespib = compound: COc1cc([C@@H]2c3cc4c(cc3[C@@H](O[C@@H]3O[C@@H]5CO[C@@H](C)O[C@H]5[C@H](O)[C@H]3O)[C@H]3COC(=O)[C@H]23)OCO4)cc(OC)c1O [Etoposide] + CCNC(=O)c1noc(-c2cc(C(C)C)c(O)cc2O)c1-c1ccc(CN2CCOCC2)cc1 [Luminespib] (partner 0.01 µM)
In short: as §1

Etoposide + Dasatinib = compound: COc1cc([C@@H]2c3cc4c(cc3[C@@H](O[C@@H]3O[C@@H]5CO[C@@H](C)O[C@H]5[C@H](O)[C@H]3O)[C@H]3COC(=O)[C@H]23)OCO4)cc(OC)c1O [Etoposide] + Cc1nc(Nc2ncc(C(=O)Nc3c(C)cccc3Cl)s2)cc(N2CCN(CCO)CC2)n1 [Dasatinib] (partner 0.075 µM)
In short: as §1

Row | Cell Line | relative viability (Bleomycin + Navitoclax; first compound 0.01 µM) | relative viability (Bleomycin + Navitoclax; first compound 0.03162 µM) | relative viability (Bleomycin + Navitoclax; first compound 0.1 µM) | relative viability (Bleomycin + Navitoclax; first compound 0.3162 µM) | relative viability (Bleomycin + Navitoclax; first compound 1 µM) | relative viability (Bleomycin + Lapatinib; first compound 0.01 µM) | relative viability (Bleomycin + Lapatinib; first compound 0.03162 µM) | relative viability (Bleomycin + Lapatinib; first compound 0.1 µM) | relative viability (Bleomycin + Lapatinib; first compound 0.3162 µM) | relative viability (Bleomycin + Lapatinib; first compound 1 µM) | relative viability (Etoposide + Luminespib; first compound 0.01 µM) | relative viability (Etoposide + Luminespib; first compound 0.03162 µM) | relative viability (Etoposide + Luminespib; first compound 0.1 µM) | relative viability (Etoposide + Luminespib; first compound 0.3162 µM) | relative viability (Etoposide + Luminespib; first compound 1 µM) | relative viability (Etoposide + Dasatinib; first compound 0.01 µM) | relative viability (Etoposide + Dasatinib; first compound 0.03162 µM) | relative viability (Etoposide + Dasatinib; first compound 0.1 µM) | relative viability (Etoposide + Dasatinib; first compound 0.3162 µM) | relative viability (Etoposide + Dasatinib; first compound 1 µM)
1 | HOP-62 | 0.367 | 0.405 | 0.118 | 0.0652 | 0.0435 | 0.485 | 0.395 | 0.15 | 0.14 | 0.141 | 0.855 | 0.977 | 0.866 | 0.638 | 0.307 | 0.584 | 0.676 | 0.492 | 0.621 | 0.363
2 | HARA | 1.1 | 1.08 | 1.02 | 0.747 | 0.601 | 0.764 | 0.734 | 0.704 | 0.644 | 0.308 | 0.403 | 0.999 | 0.682 | 0.226 | 0.106 | 0.263 | 0.298 | 0.259 | 0.23 | 0.181
3 | PC-14 | 0.663 | 0.532 | 0.174 | 0.0752 | 0.0592 | 0.302 | 0.244 | 0.222 | 0.096 | 0.0848 | 0.112 | 0.172 | 0.143 | 0.138 | 0.151 | 0.266 | 0.227 | 0.276 | 0.217 | 0.151
4 | NCI-H1755 | 0.932 | 0.933 | 0.945 | 0.724 | 0.394 | 0.91 | 1.03 | 0.92 | 0.631 | 0.578 | 0.481 | 0.415 | 0.45 | 0.483 | 0.277 | 0.433 | 0.452 | 0.469 | 0.413 | 0.394
5 | HCC-78 | 0.463 | 0.439 | 0.387 | 0.326 | 0.278 | 0.64 | 0.918 | 0.549 | 0.429 | 0.215 |  |  |  |  |  | 0.435 | 0.39 | 0.33 | 0.334 | 0.152
6 | IA-LM | 0.498 | 0.673 | 0.611 | 0.28 | 0.205 | 0.476 | 0.7 | 0.623 | 0.274 | 0.336 |  |  |  |  |  |  |  |  |  | 
7 | NCI-H441 |  | 0.733 | 0.574 | 0.389 | 0.339 |  |  |  |  |  | 0.307 | 0.28 | 0.331 | 0.259 | 0.256 | 0.58 | 0.677 | 0.398 | 0.285 | 0.147
8 | NCI-H322M | 1.13 | 1.36 | 1.36 | 1.28 | 0.597 | 0.467 | 0.551 | 0.543 | 0.383 | 0.348 | 0.789 | 0.846 | 0.553 | 0.486 | 0.392 | 0.272 | 0.237 | 0.232 | 0.26 | 0.254
9 | NCI-H661 |  |  |  |  |  | 0.501 | 0.374 | 0.349 | 0.204 | 0.219 | 0.956 | 0.901 | 0.898 | 0.553 | 0.435 | 0.787 | 1.02 | 0.671 | 0.586 | 0.306
10 | NCI-H650 |  |  |  |  |  | 0.537 | 0.748 | 0.686 | 0.318 | 0.21 | 0.695 | 0.895 | 0.336 | 0.179 | 0.174 | 0.457 | 0.472 | 0.342 | 0.372 | 0.215
11 | ChaGo-K-1 |  | 0.914 | 0.724 | 0.386 | 0.307 |  |  |  |  |  | 0.467 | 0.473 | 0.38 | 0.211 | 0.229 | 0.479 | 0.59 | 0.51 | 0.441 | 0.146
12 | NCI-H522 |  |  |  |  |  |  |  |  |  |  | 1.03 | 0.988 | 0.866 | 0.907 | 0.601 | 0.861 | 0.883 | 0.805 | 0.895 | 0.874
13 | NCI-H1299 | 0.977 | 1.01 | 0.922 | 0.396 | 0.376 | 0.926 | 0.985 | 0.772 | 0.431 | 0.382 |  |  |  |  |  |  |  |  |  | 
14 | NCI-H2342 |  |  |  |  |  |  |  |  |  |  | 0.622 | 0.728 | 0.425 | 0.352 | 0.29 | 0.317 | 0.315 | 0.3 | 0.229 | 0.254
15 | SW 900 |  |  |  |  |  |  |  |  |  |  | 0.185 | 0.21 | 0.168 | 0.175 | 0.153 | 0.62 | 0.659 | 0.395 | 0.591 | 0.147
16 | HCC-366 | 0.74 | 0.489 | 0.268 | 0.0573 | 0.0178 | 0.52 | 0.337 | 0.212 | 0.0246 | 0.0258 |  |  |  |  |  | 0.644 | 0.774 | 0.36 | 0.178 | 0.0448
17 | A549 | 0.933 | 0.827 | 0.54 | 0.127 | 0.0446 | 0.695 | 0.634 | 0.38 | 0.0818 | 0.0645 |  |  |  |  |  |  |  |  |  | 
18 | NCI-H1563 |  |  |  |  |  | 0.698 | 0.76 | 0.705 | 0.611 | 0.52 | 0.502 | 0.463 | 0.479 | 0.408 | 0.396 | 0.416 | 0.514 | 0.435 | 0.387 | 0.349
19 | ABC-1 |  |  |  |  |  | 1.01 | 1.03 | 1.23 | 1.01 | 0.961 | 0.35 | 0.648 | 0.33 | 0.351 | 0.29 | 0.535 | 0.597 | 0.336 | 0.248 | 0.207
20 | LCLC-103H |  |  |  |  |  |  |  |  |  |  | 0.924 | 1.17 | 0.954 | 0.832 | 0.541 | 0.466 | 0.482 | 0.417 | 0.546 | 0.42
